Experimental data published in patent EP0041644B1 (priority 1980, dated 1981).

Key:
[1] = test system: L1210 Leukemia; assay: L1210 Leukemia - Test 3 (vehicle comparison); format: in vivo, mice; settings: for Effect MST % T/C / MST Days: Day 1 only
[2] = test system: L1210 Leukemia; assay: L1210 Leukemia - Test 1 (survival of tumor-bearing mice); format: in vivo; settings: for Effect MST % T/C / MST Days: d. 1 only
From the text: This evaluation of the ammonium salt finds the drug to be active against L1210 (ip) leukemia when administered ip one day post-implant of 10^6 L1210 cells (maximum T/C was 164%). […] The vehicle for the ammonium salt was water.

[3] = test system: B16 Melanoma; assay: B16 Melanoma - Test 2 (ip tumor brei); format: in vivo, mice; settings: QD +9
[4] = test system: B16 Melanoma; assay: B16 Melanoma - Test 1 (ip tumor brei); format: in vivo, mice; settings: for Effect MST % T/C / MST Days: QD 1→9, vehicle H2O

[NH2][Pt]1([NH2])[O]C(=O)C([O-])C(=O)[O]1.[NH4+] [Example 1, 2-Hydroxymalonato diammine platinum (II), ammonium salt]
Water-solubility at room temperature: 10000 µg/mL
Solubility in H2O at 22-25°C (water): 10000 µg/mL
Effect MST % T/C ([1]; 40 mg/kg ip, vehicle H2O): 143 % T/C
MST Days ([1]; 40 mg/kg ip, vehicle H2O): 10.0 days
Effect MST % T/C ([1]; 40 mg/kg ip, vehicle Saline): 114 % T/C
MST Days ([1]; 40 mg/kg ip, vehicle Saline): 8.0 days
Effect MST % T/C ([1]; 60 mg/kg ip, vehicle H2O): 143 % T/C
MST Days ([1]; 60 mg/kg ip, vehicle H2O): 10.0 days
Effect MST % T/C ([1]; 60 mg/kg ip, vehicle Saline): 100 % T/C
MST Days ([1]; 60 mg/kg ip, vehicle Saline): 7.0 days
Effect MST % T/C ([1]; 80 mg/kg ip, vehicle H2O): 143 % T/C
MST Days ([1]; 80 mg/kg ip, vehicle H2O): 10.0 days
Effect MST % T/C ([1]; 80 mg/kg ip, vehicle Saline): 114 % T/C
MST Days ([1]; 80 mg/kg ip, vehicle Saline): 8.0 days
Effect MST % T/C ([1]; 100 mg/kg ip, vehicle H2O): 107 % T/C
MST Days ([1]; 100 mg/kg ip, vehicle H2O): 7.5 days
Effect MST % T/C ([1]; 100 mg/kg ip, vehicle Saline): 143 % T/C
MST Days ([1]; 100 mg/kg ip, vehicle Saline): 10.0 days
Maximum increase in median lifespan (T/C) ([1]; single dose ip, saline and water as vehicles): 143%
Effect MST % T/C ([2]; 10 mg/kg/day ip): 136 % T/C
MST Days ([2]; 10 mg/kg/day ip): 9.5 days
Effect MST % T/C ([2]; 20 mg/kg/day ip): 129 % T/C
MST Days ([2]; 20 mg/kg/day ip): 9.0 days
Effect MST % T/C ([2]; 40 mg/kg/day ip): 143 % T/C
MST Days ([2]; 40 mg/kg/day ip): 10.0 days
Effect MST % T/C ([2]; 60 mg/kg/day ip): 157 % T/C
MST Days ([2]; 60 mg/kg/day ip): 11.0 days
Effect MST % T/C ([2]; 80 mg/kg/day ip): 157 % T/C
MST Days ([2]; 80 mg/kg/day ip): 11.0 days
Effect MST % T/C ([2]; 100 mg/kg/day ip): 164 % T/C
MST Days ([2]; 100 mg/kg/day ip): 11.5 days
maximum T/C ([2]; ip one day post-implant of 10^6 L1210 cells, vehicle water): 164%
Average Weight Change ([3]; 2 mg/kg/day ip): -0.7 g
Effect MST % T/C ([3]; 2 mg/kg/day ip): 153 % T/C
MST Days ([3]; 2 mg/kg/day ip): 31.5 days
Average Weight Change ([3]; 4 mg/kg/day ip): -2.0 g
Effect MST % T/C ([3]; 4 mg/kg/day ip): 158 % T/C
MST Days ([3]; 4 mg/kg/day ip): 32.5 days
Average Weight Change ([3]; 8 mg/kg/day ip): -0.9 g
Effect MST % T/C ([3]; 8 mg/kg/day ip): 180 % T/C
MST Days ([3]; 8 mg/kg/day ip): 37.0 days
Average Weight Change ([3]; 16 mg/kg/day ip): -1.3 g
Effect MST % T/C ([3]; 16 mg/kg/day ip): 234 % T/C
MST Days ([3]; 16 mg/kg/day ip): 48.0 days
Survivors Day 10 (60) ([3]; Day 10, 2 mg/kg/day ip): 9/10
Survivors Day 10 (60) ([3]; Day 10, 4 mg/kg/day ip): 9/10
Survivors Day 10 (60) ([3]; Day 10, 8 mg/kg/day ip): 9/10
Survivors Day 10 (60) ([3]; Day 10, 16 mg/kg/day ip): 8/10
Survivors Day 10 (60) ([3]; Day 60 (figure in parentheses), 16 mg/kg/day ip): 2
Effect MST % T/C ([4]; 4 mg/kg/day ip): 192 % T/C
MST Days ([4]; 4 mg/kg/day ip): 37.5 days
Effect MST % T/C ([4]; 8 mg/kg/day ip): 190 % T/C
MST Days ([4]; 8 mg/kg/day ip): 37.0 days
Effect MST % T/C ([4]; 16 mg/kg/day ip): 121 % T/C
MST Days ([4]; 16 mg/kg/day ip): 23,5 Days
Effect MST % T/C ([4]; 24 mg/kg/day ip): 36 % T/C
MST Days ([4]; 24 mg/kg/day ip): 7.0 days
Effect MST % T/C ([4]; 32 mg/kg/day ip): 31 % T/C
MST Days ([4]; 32 mg/kg/day ip): 6.0 days
maximum T/C ([4]; ip B16, ip QD 1→9): 190%
